Assay results from ChEMBL document CHEMBL5465560, “Selectivity Literature for EUbOPEN Chemogenomic Library” (2024).
Blank lines part the entries; values can stand above or below the compound they belong to.

Assays:
[1] = target: Tyrosine-protein kinase receptor UFO (Homo sapiens) (UniProt P30530); experiment: Selectivity interaction (Millipore kinase profiler) EUB0000124b AXL; conditions: at 10 µM
[2] = target: T1, Aurora kinase A (Homo sapiens) (UniProt O14965); experiment: Selectivity interaction (ActivX KiNativ screen (kinase selectivity in THP-1 cell lysates)) EUB0000639a STK6; assay type: subcellular; conditions: lysate, at 1 µM
T1 sequence (whole entry): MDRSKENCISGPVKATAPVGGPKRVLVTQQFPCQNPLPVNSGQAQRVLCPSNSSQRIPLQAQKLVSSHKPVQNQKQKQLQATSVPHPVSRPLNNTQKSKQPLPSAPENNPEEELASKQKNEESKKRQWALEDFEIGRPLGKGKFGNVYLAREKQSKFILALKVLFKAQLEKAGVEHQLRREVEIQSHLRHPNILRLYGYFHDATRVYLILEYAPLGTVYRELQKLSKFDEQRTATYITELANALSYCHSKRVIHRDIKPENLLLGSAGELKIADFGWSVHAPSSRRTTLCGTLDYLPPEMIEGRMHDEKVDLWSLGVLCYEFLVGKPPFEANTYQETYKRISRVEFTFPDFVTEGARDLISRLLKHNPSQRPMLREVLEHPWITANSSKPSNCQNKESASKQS

[3] = target: Glycogen synthase kinase-3 alpha (Homo sapiens, UniProt P49840); experiment: Selectivity interaction (Kinase panel (Invitrogen)) EUB0000639a GSK3A; conditions: at 200 nM
[4] = target: Tyrosine-protein kinase Lyn (Homo sapiens, UniProt P07948); experiment: Selectivity interaction (Kinase panel (Z-LYTE Assay)) EUB0001632a LYN; conditions: at 10 µM
SRSF protein kinase 1 = SRSF protein kinase 1 (Homo sapiens, UniProt Q96SB4); experiment: Selectivity interaction (Kinase panel (Z-LYTE Assay)) EUB0001632a SRPK1; conditions: at 10 µM
Activated CDC42 kinase 1 = Activated CDC42 kinase 1 (Homo sapiens, UniProt Q07912); experiment: Selectivity interaction (LanthaScreen Eu Kinase Binding Assay) EUB0001632a TNK2; conditions: at 10 µM
[5] = system: ALK tyrosine kinase receptor (Homo sapiens), Q9UM73 [L1196M]; experiment: (§1) Selectivity interaction (KinomeScan (DiscoverX)) EUB0000229b ALK; conditions: at 1 µM
[6] = system: ALK tyrosine kinase receptor (Homo sapiens), Q9UM73 [C1156Y]; experiment: as §1; conditions: at 1 µM
[7] = target: T2, Serine/threonine-protein kinase NLK (Homo sapiens) (UniProt Q9UBE8); experiment: Selectivity interaction (KinomeScan (DiscoverX)) EUB0000229b NLK; conditions: at 10 µM
T2 sequence (whole entry): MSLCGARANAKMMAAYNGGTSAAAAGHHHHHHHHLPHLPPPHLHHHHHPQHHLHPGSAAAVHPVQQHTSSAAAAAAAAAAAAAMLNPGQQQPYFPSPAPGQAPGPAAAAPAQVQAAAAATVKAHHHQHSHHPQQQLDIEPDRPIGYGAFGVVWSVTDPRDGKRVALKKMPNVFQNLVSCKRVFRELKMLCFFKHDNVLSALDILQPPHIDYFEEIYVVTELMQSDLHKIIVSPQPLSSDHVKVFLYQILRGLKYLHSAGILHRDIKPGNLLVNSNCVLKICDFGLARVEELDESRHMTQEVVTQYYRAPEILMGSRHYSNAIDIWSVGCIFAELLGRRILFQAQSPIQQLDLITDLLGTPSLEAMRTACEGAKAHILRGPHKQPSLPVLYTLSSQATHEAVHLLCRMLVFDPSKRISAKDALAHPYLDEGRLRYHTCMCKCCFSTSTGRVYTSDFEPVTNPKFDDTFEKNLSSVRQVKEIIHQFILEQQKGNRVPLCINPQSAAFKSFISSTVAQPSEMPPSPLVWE

[8] = target: ALK tyrosine kinase receptor (Homo sapiens, UniProt Q9UM73); experiment: (§2) Selectivity interaction (KinomeScan (DiscoverX)) EUB0001079a ALK; conditions: at 1 µM
[9] = system: ALK tyrosine kinase receptor (Homo sapiens), Q9UM73 [L1196M]; experiment: as §2; conditions: at 1 µM
[10] = system: ALK tyrosine kinase receptor (Homo sapiens), Q9UM73 [C1156Y]; experiment: as §2; conditions: at 1 µM
[11] = target: Citron Rho-interacting kinase (Homo sapiens) (UniProt O14578); experiment: Selectivity interaction (KinomeScan (DiscoverX)) EUB0000655a CIT; conditions: at 10 µM
[12] = target: T3, Cytoplasmic tyrosine-protein kinase BMX (Homo sapiens) (UniProt P51813); experiment: Selectivity interaction (KinomeScan (DiscoverX)) EUB0000618a BMX; conditions: at 10 µM
T3 sequence (whole entry): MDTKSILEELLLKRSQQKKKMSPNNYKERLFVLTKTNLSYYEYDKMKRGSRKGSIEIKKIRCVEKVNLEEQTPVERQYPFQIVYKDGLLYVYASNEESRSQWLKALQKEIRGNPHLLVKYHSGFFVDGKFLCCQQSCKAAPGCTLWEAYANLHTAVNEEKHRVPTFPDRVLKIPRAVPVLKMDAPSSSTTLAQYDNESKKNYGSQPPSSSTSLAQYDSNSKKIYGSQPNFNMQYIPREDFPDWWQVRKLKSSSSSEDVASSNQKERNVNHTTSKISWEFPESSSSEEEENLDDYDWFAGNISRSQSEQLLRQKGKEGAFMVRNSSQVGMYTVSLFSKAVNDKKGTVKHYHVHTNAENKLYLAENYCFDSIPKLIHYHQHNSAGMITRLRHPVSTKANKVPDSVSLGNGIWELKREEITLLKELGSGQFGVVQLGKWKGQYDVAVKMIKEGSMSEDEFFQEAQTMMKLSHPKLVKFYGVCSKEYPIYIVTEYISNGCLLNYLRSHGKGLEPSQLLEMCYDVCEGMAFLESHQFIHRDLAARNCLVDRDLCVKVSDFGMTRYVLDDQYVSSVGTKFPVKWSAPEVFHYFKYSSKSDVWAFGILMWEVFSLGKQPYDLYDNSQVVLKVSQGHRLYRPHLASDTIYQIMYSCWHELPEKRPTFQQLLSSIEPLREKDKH

Chain of ALK tyrosine kinase receptor (Homo sapiens), Q9UM73 [L1196M] (Q9UM73 whole entry L1196M, looked up): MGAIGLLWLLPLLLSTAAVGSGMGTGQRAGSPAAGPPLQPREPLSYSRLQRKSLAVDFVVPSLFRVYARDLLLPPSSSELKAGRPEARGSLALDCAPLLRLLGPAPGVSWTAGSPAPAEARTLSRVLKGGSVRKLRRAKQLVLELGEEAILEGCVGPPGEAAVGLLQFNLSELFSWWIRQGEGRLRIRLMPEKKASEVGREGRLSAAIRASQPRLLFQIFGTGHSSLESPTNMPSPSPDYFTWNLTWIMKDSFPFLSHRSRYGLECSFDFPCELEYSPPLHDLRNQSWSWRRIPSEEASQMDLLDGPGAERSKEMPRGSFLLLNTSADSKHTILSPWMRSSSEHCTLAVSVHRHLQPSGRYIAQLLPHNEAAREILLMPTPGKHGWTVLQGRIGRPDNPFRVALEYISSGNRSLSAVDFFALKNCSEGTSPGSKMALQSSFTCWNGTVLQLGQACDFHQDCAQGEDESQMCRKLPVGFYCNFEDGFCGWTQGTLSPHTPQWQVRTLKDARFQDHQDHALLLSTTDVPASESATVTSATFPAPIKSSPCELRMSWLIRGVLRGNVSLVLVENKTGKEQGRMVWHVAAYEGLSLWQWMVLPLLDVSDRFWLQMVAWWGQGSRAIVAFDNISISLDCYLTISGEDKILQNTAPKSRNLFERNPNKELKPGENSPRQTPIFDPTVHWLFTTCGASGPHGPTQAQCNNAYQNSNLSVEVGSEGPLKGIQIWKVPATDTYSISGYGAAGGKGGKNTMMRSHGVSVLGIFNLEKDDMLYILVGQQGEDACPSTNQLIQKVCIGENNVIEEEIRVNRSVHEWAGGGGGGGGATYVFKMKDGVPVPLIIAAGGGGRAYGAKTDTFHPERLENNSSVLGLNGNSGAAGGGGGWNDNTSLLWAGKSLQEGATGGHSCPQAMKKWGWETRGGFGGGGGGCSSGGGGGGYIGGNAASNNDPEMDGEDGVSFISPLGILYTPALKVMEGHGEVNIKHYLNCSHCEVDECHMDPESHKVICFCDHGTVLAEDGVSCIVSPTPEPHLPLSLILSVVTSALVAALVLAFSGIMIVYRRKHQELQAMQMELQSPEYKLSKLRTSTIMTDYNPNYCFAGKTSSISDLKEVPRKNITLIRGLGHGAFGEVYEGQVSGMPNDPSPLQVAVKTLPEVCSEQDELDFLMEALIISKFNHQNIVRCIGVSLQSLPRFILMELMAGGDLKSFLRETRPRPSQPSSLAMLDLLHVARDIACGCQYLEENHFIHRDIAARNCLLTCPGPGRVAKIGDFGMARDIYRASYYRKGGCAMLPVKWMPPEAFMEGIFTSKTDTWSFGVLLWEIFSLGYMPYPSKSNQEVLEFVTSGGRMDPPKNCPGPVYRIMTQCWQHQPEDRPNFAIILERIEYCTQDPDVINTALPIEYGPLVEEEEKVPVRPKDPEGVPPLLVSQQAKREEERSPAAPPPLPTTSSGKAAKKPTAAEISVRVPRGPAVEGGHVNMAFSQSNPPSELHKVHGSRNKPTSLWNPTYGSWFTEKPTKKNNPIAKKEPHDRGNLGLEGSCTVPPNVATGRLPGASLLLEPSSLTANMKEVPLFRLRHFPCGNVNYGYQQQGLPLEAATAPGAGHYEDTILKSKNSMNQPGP
Chain of ALK tyrosine kinase receptor (Homo sapiens), Q9UM73 [C1156Y] (Q9UM73 whole entry C1156Y, looked up): as the sequence (Q9UM73 whole entry L1196M, looked up) above, with C1156Y, M1196L counted along it
Chain of Activated CDC42 kinase 1 (Q07912 whole entry, looked up): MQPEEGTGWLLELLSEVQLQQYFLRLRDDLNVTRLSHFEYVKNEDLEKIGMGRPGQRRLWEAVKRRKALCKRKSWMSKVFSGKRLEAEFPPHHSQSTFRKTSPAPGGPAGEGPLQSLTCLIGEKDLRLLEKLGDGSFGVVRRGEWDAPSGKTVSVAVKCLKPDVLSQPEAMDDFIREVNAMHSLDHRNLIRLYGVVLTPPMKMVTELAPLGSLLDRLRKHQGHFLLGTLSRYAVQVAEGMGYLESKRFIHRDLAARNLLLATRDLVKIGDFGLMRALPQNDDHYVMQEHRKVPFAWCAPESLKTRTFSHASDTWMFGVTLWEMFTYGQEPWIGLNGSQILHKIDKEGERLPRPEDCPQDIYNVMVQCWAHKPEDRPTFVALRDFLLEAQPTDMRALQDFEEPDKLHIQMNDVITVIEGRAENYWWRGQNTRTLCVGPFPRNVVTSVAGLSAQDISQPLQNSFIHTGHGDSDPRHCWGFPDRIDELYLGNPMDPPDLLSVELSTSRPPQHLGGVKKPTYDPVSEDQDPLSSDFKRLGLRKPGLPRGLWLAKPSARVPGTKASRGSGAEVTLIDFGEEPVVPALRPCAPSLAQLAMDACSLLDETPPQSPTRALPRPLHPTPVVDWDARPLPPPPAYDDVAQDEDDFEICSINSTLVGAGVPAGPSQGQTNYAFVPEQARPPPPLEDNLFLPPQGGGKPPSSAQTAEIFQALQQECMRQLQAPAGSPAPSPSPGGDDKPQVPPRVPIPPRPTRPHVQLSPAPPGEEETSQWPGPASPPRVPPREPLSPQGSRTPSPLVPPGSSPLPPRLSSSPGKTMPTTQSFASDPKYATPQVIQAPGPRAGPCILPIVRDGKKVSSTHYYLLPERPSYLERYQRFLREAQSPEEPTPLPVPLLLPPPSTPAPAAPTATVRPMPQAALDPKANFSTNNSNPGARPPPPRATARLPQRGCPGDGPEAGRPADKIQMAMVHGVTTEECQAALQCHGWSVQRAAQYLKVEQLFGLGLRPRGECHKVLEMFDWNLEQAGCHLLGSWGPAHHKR
Chain of Glycogen synthase kinase-3 alpha (P49840 2-483 limits assumed): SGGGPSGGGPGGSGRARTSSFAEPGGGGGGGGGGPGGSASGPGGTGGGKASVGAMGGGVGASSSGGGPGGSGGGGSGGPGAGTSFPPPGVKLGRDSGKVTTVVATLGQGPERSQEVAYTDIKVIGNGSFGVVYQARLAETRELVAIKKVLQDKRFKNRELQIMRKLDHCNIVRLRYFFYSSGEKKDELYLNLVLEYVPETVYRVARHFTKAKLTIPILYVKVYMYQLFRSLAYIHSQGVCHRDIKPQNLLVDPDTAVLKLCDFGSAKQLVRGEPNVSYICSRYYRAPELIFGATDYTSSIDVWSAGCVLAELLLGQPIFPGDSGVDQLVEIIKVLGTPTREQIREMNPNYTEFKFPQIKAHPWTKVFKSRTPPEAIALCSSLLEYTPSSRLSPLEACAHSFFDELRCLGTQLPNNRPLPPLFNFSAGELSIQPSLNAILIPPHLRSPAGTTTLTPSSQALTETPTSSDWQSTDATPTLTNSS
Chain of ALK tyrosine kinase receptor (Q9UM73 19-1620 limits assumed): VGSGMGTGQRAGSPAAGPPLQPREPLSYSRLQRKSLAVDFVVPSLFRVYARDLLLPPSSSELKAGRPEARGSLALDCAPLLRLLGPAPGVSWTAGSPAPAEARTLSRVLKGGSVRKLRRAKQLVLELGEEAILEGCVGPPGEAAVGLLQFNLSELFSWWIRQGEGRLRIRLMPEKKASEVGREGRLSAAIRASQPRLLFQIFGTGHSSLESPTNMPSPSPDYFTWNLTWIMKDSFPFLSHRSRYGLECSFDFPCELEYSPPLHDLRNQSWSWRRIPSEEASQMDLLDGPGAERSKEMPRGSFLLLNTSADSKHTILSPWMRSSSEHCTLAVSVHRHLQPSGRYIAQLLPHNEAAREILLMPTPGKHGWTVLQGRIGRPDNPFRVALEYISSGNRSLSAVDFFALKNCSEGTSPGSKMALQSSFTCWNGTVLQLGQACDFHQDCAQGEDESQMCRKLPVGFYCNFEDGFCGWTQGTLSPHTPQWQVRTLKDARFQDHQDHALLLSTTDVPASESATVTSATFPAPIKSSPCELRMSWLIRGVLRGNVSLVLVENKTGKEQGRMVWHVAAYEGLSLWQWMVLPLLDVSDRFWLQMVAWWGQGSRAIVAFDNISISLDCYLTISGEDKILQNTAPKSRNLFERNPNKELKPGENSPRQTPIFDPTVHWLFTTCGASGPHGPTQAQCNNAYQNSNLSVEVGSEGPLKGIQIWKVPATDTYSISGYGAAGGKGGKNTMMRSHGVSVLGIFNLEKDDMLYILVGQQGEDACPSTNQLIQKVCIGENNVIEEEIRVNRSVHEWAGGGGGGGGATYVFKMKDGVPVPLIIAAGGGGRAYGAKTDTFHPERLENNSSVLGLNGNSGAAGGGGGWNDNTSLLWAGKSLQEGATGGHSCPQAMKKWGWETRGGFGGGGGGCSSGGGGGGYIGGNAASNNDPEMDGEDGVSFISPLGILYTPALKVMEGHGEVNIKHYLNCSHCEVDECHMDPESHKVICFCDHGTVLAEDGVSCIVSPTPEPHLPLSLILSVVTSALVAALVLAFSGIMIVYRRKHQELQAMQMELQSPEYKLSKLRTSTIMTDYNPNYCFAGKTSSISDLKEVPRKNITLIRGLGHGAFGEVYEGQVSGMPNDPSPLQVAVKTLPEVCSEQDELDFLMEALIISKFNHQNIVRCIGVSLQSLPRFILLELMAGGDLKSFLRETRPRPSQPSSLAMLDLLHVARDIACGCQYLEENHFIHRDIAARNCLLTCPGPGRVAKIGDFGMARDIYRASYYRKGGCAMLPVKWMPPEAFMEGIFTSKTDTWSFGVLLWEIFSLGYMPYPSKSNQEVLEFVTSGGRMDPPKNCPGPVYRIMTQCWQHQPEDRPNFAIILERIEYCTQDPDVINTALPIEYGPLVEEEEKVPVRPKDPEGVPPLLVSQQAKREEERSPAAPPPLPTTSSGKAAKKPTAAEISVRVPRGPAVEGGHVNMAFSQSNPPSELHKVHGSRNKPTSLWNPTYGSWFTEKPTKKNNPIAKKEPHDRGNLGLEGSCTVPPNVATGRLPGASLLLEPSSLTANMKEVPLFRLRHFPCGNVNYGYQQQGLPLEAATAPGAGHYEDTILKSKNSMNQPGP

% of control [1]: 114%
SMILES: CC(=O)Nc1cccc(-n2c(=O)n(C3CC3)c(=O)c3c(Nc4ccc(I)cc4F)n(C)c(=O)c(C)c32)c1

% of inhibition [2]: 17.4%
% of inhibition [3]: 7.43%
SMILES: CC[C@@H]1[C@H](F)C(=O)N[C@@H]1COc1nccc2cc(C(N)=O)c(OC)cc12 [ZIMLOVISERTIB]

% of control [4]: 6.83%
% of control (SRSF protein kinase 1): 0.97%
% of inhibition (Activated CDC42 kinase 1): -5.62%
SMILES: Cn1cc(-n2cnc3c(NCc4nc5cc(Cl)c(Cl)cc5[nH]4)nc(N4CCOCC4)nc32)cn1

SMILES: COc1cc(N(C)c2ccnc3ccc(C(F)(F)F)cc23)cc(OC)c1OC
% binding [5]: 89%
% binding [6]: 83%
% binding [7]: 64%

SMILES: Nc1cnc(N2CCc3cc(S(=O)(=O)Nc4c(F)cc(Cl)cc4F)cc(N4CCCC4=O)c32)nc1 [TP-020n]
% of control [8]: 100%
% of control [9]: 81%
% of control [10]: 100%

SMILES: CN(C)CCOc1ccc(-c2nc(-c3ccncc3)c(-c3ccc4c(c3)CC/C4=N\O)[nH]2)cc1
% of control [11]: 0.8%

SMILES: O[C@H]1CC[C@H](Nc2ncc3nc(Nc4c(F)cc(F)cc4F)n([C@H]4CCOC4)c3n2)CC1
% of control [12]: 100%
